In experiment [1] the test system is G0S2 promoter. Put plainly: G0S2 promoter luciferase activity in O-4000E cell line, IC50. Particulars: O-4000E cells, 24 hours after exposure. It is filed as cell-based, mouse. The protocol: The present inventors have searched for a G0S2 gene transcription inhibitor. In searching, the present inventors have received a compound library consisting of 9600 compounds (Core library) from the Open Innovation Center for Drug Discovery, The University of Tokyo. For this compound library, primary screening was carried out by evaluating an effect of compounds on a luciferase activity using a 384-well plate. The drug efficacy evaluation was studied three times for each compound (final concentration of 10 μM) using a cell line stably expressing an expression cassette in which a luciferase gene was ligated to the downstream side of the G0S2 promoter (−2030→−1378), and compounds which reduced a luciferase activity to less than ¼ were extracted from all studies. As a result, 175 compounds were hit.
For the evaluation of drug efficacy of Compound Nos. 1 and 2, which are hit compounds, an IC50 was calculated. The O-4000E cell line was seeded, and Compound Nos. 1 and 2 were serially diluted in […] so as to have final concentrations of 0.15625 μM to 10 μM, followed by exposure of the cells to the compounds. The luciferase activity was measured 24 hours after the exposure, and the curve fitting was carried out to calculate an IC50 of the compounds.
Detailed drug efficacy evaluation at low concentrations was carried out for the compound of Example 2 (NS-3-011) whose drug efficacy at a concentration of less than 10 μM was observed based on the studies so far and which is expected to have an effect equal to or more than that of Compound No. 2. First, using O-4000E cells, IC50 of Compound No. 2 and the compound of Example 2 (NS-3-011) on the G0S2 promoter activity was calculated.

The test system of experiment [2] is Ccl2 mRNA. Kind of experiment: Ccl2 mRNA in Hepa1-6 cells exposed to LPS or TNFα. In kind it is cell-based, mouse. Particulars: 10 μM, 12 hours. The protocol:
(§1) Next, whether or not Compound No. 2 whose effect in vivo was confirmed has an effect to antagonize the activation of an inflammatory signal was examined. Hepa1-6 cells were exposed to Compound No. 2 at a dose of 10 μM simultaneously with exposure to lipopolysaccharide (LPS) or TNFα which activates NF-κB for which the G0S2 protein acts as a regulator. As shown in FIGS. 10A and 10B, the cells were recovered 12 hours after the exposure and the expression level of Ccl2 mRNA was measured. […] In addition, 25 μg of LPS was administered to the tail vein of a mouse to thereby construct a hepatitis model. 30 minutes after the administration of LPS, Compound No. 2 (5 mg/kg) was administered to the tail vein of the mouse, and the liver was sampled at 6 hours.

In experiment [3] the test system is Ccl2 mRNA. Put plainly: LPS hepatitis model mouse: Ccl2 mRNA in liver. It is filed as in vivo. The protocol: as §1
LPS (10 μg/mouse) was administered to ICR male mice by tail vein injection to prepare an LPS-administered group. […]
In addition, for the liver of mice of each group, the expression level of mRNA of Ccl2, which is a target gene of NF-κB, was quantified by real-time PCR. FIG. 11C is a graph showing the quantitative results of the expression level of mRNA of Ccl2.
10 μg of LPS was intraperitoneally administered to mice to construct a hepatitis model. […] 5 hours after the administration of each compound, the liver was harvested from each mouse and the expression level of Ccl2 was quantified by real-time PCR.

Experiment [4] deals with G0S2 transcriptional activity regulatory region. Put plainly: Luciferase assay with G0S2 transcriptional activity regulatory regions of each length in NIH3T3 cells. It is filed as cell-based, mouse. Particulars: NIH3T3 stable cells, 10 μM, 24 hours. Here is the method: Subsequently, these expression vectors were transfected into NIH3T3 cells, which are mouse fibroblast cells, to construct cells stably expressing luciferase.
Subsequently, Compound No. 2 or DMSO (control) at a final concentration of 10 μM was added to the medium of each cell. Subsequently, the cells were recovered after 24 hours and the luciferase activity was measured.

Experimental findings from patent US20190359560A1, “ANTI-INFLAMMATORY DRUG AND USES THEREOF” (KYUSHU UNIVERSITY, NATIONAL UNIVERSITY CORPORATION, priority 2015, published 2019) are described below.

What is called IC50 is the concentration that gives 50% inhibition. For the compound `CCCCCCNC(=N)NCc1ccccc1` [Compound No. 2], the IC50 stood at 2250 nM in experiment [1] (Mus musculus, 24 h) and 2310 nM in experiment [1]. Also, in experiment [2] (LPS 100 ng/mL), the “expression of Ccl2 mRNA increased by LPS” value is “significantly inhibited”. Further, the “expression of Ccl2 mRNA increased by TNFα” value in experiment [2] (TNFα 200 ng/mL) was “significantly inhibited”. The “expression level of Ccl2 mRNA in the liver” value in experiment [3] (LPS 10 μg/mouse tail vein, 5 mg/kg subcutaneous 1 hour after LPS, liver 5 hours later, vs LPS group) is recorded as “significantly decreased”. For the same compound, the “expression of Ccl2 mRNA in the liver” value in experiment [3] (LPS 25 μg tail vein, compound 5 mg/kg tail vein 30 minutes after LPS, liver at 6 hours) is reported as “significantly inhibited”. The “effect of inhibiting the expression of luciferase when the STAT5/6 binding region disappears” value in experiment [4] is “decreased”.
